# Source: patent US8686150B2 (Sanofi, priority 2011, dated 2014)
# Biological target: T1, human full-length recombinant PKC βII (Homo sapiens, UniProt P05771)
# T1 construct: Active human full-length recombinant PKC βII; purchased Invitrogen GmbH, Darmstadt, Germany
# Experiment: Determination of PKC βII inhibition (Caliper mobility-shift kinase assay, Fluorescein-RFARKGSLRQKNV peptide substrate)
# Format: biochemical
# Details: example compounds at a final concentration of 1.14 μM (±0.15 μM)
# In short: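 Compounds were tested at 1.14 μM final. Enzyme was activated by PS, DAG and CaCl2 in Hepes pH 7.4 with MgCl2, with substrate 3 μM and ATP 120 μM as pre-mix concentrations. After 60 min at 32 °C and an EDTA stop, Caliper separation gave fractional turnover, which was normalised to no-compound and no-enzyme controls.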
# T1 sequence (P05771 1-673 isoform P05771-2): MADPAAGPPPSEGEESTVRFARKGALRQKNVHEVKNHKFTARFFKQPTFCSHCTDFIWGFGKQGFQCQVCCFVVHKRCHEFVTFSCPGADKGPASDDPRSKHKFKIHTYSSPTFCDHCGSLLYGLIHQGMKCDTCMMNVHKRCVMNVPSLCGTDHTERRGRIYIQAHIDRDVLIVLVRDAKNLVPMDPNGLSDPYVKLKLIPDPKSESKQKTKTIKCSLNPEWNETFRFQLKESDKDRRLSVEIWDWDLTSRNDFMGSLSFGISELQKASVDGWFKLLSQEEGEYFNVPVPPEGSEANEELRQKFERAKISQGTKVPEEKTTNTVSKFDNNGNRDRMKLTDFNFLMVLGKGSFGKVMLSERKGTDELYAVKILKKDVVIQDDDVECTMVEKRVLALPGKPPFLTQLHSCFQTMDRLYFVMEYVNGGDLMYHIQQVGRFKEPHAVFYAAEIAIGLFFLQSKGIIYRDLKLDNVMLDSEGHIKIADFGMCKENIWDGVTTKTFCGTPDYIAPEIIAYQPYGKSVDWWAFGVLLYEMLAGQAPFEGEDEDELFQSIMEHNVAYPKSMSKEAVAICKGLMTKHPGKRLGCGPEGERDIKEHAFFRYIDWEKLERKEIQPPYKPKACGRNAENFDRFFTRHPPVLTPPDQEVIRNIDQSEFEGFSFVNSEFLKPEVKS
inhibition at 1.14 µM,SMILES,% Inhibition
94%,"Cc1cc(O)ccc1-c1cc(C(=O)N2CCNCC2c2ccc(F)cc2F)c2c(C)n[nH]c2n1 (stereo not drawn) [Example 152, [2-(2,4-Difluoro-phenyl)-piperazin-1-yl]-[6-(4-hydroxy-2-methyl-phenyl)-3-methyl-1H-pyrazolo[3,4-b]pyridin-4-yl]-methanone]",–
89%,"Cc1cc(O)ccc1-c1cc(C(=O)N2CCNCC2c2ccccc2Cl)c2c(C)n[nH]c2n1 (stereo not drawn) [Example 153, [2-(2-Chloro-phenyl)-piperazin-1-yl]-[6-(4-hydroxy-2-methyl-phenyl)-3-methyl-1H-pyrazolo[3,4-b]pyridin-4-yl]-methanone]",–
94%,"Cc1cc(O)ccc1-c1cc(C(=O)N2CCNCC2c2ccc(C(F)(F)F)cc2)c2c(C)n[nH]c2n1 (stereo not drawn) [Example 154, [6-(4-Hydroxy-2-methyl-phenyl)-3-methyl-1H-pyrazolo[3,4-b]pyridin-4-yl]-[2-(4-trifluoromethyl-phenyl)-piperazin-1-yl]-methanone]",–
88%,"Cc1cc(O)ccc1-c1cc(C(=O)N2CC(C)(C)NCC2(C)C)c2c(C)n[nH]c2n1 [Example 155, [6-(4-Hydroxy-2-methyl-phenyl)-3-methyl-1H-pyrazolo[3,4-b]pyridin-4-yl]-(2,2,5,5-tetramethyl-piperazin-1-yl)-methanone]",–
26%,"Cc1cc(O)cc(C)c1-c1cc(C(=O)N2CCNCC2(C)C)c2c(C)n[nH]c2n1 [Example 156, (2,2-Dimethyl-piperazin-1-yl)-[6-(4-hydroxy-2,6-dimethyl-phenyl)-3-methyl-1H-pyrazolo[3,4-b]pyridin-4-yl]-methanone]",–
91%,"CC1(C)CNCCN1C(=O)c1cc(-c2ccc(O)cc2)nc2[nH]nc(C3CC3)c12 [Example 157, [3-Cyclopropyl-6-(4-hydroxy-phenyl)-1H-pyrazolo[3,4-b]pyridin-4-yl]-(2,2-dimethyl-piperazin-1-yl)-methanone]",–
78%,"O=C(c1cc(-c2ccc(O)cc2)nc2[nH]nc(C3CC3)c12)N1CCNC[C@H]1c1ccccc1 [Example 158, [3-Cyclopropyl-6-(4-hydroxy-phenyl)-1H-pyrazolo[3,4-b]pyridin-4-yl]-((R)-2-phenyl-piperazin-1-yl)-methanone]",–
49%,"CCc1n[nH]c2nc(-c3ccc(O)cc3)cc(C(=O)N3CC(N)C3)c12 [Example 160, (3-Amino-azetidin-1-yl)-[3-ethyl-6-(4-hydroxy-phenyl)-1H-pyrazolo[3,4-b]pyridin-4-yl]-methanone]",–
77%,"CCc1n[nH]c2nc(-c3ccc(O)cc3)cc(C(=O)N[C@H]3CNC[C@@H]3OC)c12 [Example 161, 3-Ethyl-6-(4-hydroxy-phenyl)-1H-pyrazolo[3,4-b]pyridine-4-carboxylic acid ((3S,4S)-4-methoxy-pyrrolidin-3-yl)-amide]",–
–,"CCc1n[nH]c2nc(-c3ccc(O)cc3)cc(C(=O)NC3CC4CCC(C3)N4C)c12 [Example 164, 3-Ethyl-6-(4-hydroxy-phenyl)-1H-pyrazolo[3,4-b]pyridine-4-carboxylic acid ((3R)-8-methyl-8-aza-bicyclo[3.2.1]oct-3-yl)-amide]",53%
92%,"CCc1n[nH]c2nc(-c3ccc(O)cc3)cc(C(=O)N3CCNC(C)C3)c12 (stereo not drawn) [Example 165, [3-Ethyl-6-(4-hydroxy-phenyl)-1H-pyrazolo[3,4-b]pyridin-4-yl]-(3-methyl-piperazin-1-yl)-methanone]",–
87%,"CCc1n[nH]c2nc(-c3ccc(O)cc3)cc(C(=O)N3CCC(N)CC3)c12 [Example 166, (4-Amino-piperidin-1-yl)-[3-ethyl-6-(4-hydroxy-phenyl)-1H-pyrazolo[3,4-b]pyridin-4-yl]-methanone]",–
58%,"CCc1n[nH]c2nc(-c3ccc(O)cc3)cc(C(=O)N3CCC4CNCC43)c12 (stereo not drawn) [Example 167, [3-Ethyl-6-(4-hydroxy-phenyl)-1H-pyrazolo[3,4-b]pyridin-4-yl]-(hexahydro-pyrrolo[3,4-b]pyrrol-1-yl)-methanone]",–
44%,"CCc1n[nH]c2nc(-c3ccc(O)cc3)cc(C(=O)NC3CCNC4(CCC4)C3)c12 (stereo not drawn) [Example 168, 3-Ethyl-6-(4-hydroxy-phenyl)-1H-pyrazolo[3,4-b]pyridine-4-carboxylic acid (5-aza-spiro[3.5]non-8-yl)-amide]",–
84%,"CCc1n[nH]c2nc(-c3ccc(O)cc3)cc(C(=O)N3CC4(CCNCC4)C3)c12 [Example 169, (2,7-Diaza-spiro[3.5]non-2-yl)-[3-ethyl-6-(4-hydroxy-phenyl)-1H-pyrazolo[3,4-b]pyridin-4-yl]-methanone]",–
59%,"CCc1n[nH]c2nc(-c3ccc(O)cc3)cc(C(=O)NC3CCCC(N)C3)c12 (stereo not drawn) [Example 170, 3-Ethyl-6-(4-hydroxy-phenyl)-1H-pyrazolo[3,4-b]pyridine-4-carboxylic acid (3-amino-cyclohexyl)-amide]",–
77%,"CCc1n[nH]c2nc(-c3ccc(O)cc3)cc(C(=O)N3CCC4(CC3)CNC4)c12 [Example 171, (2,7-Diaza-spiro[3.5]non-7-yl)-[3-ethyl-6-(4-hydroxy-phenyl)-1H-pyrazolo[3,4-b]pyridin-4-yl]-methanone]",–
67%,"CCc1n[nH]c2nc(-c3ccc(O)cc3)cc(C(=O)N3CCC4(CCNC4)C3)c12 (stereo not drawn) [Example 172, (2,7-Diaza-spiro[4.4]non-2-yl)-[3-ethyl-6-(4-hydroxy-phenyl)-1H-pyrazolo[3,4-b]pyridin-4-yl]-methanone]",–
58%,"CCc1n[nH]c2nc(-c3ccc(O)cc3)cc(C(=O)N3CCC4(CCCNC4)C3)c12 (stereo not drawn) [Example 173, (2,7-Diaza-spiro[4.5]dec-2-yl)-[3-ethyl-6-(4-hydroxy-phenyl)-1H-pyrazolo[3,4-b]pyridin-4-yl]-methanone]",–
34%,"CCc1n[nH]c2nc(-c3ccc(O)cc3)cc(C(=O)N(C)C3CCN(C)CC3)c12 [Example 174, 3-Ethyl-6-(4-hydroxy-phenyl)-1H-pyrazolo[3,4-b]pyridine-4-carboxylic acid methyl-(1-methyl-piperidin-4-yl)-amide]",–
46%,"CCc1n[nH]c2nc(-c3ccc(O)cc3)cc(C(=O)NC3CCCN(CC)C3)c12 (stereo not drawn) [Example 175, 3-Ethyl-6-(4-hydroxy-phenyl)-1H-pyrazolo[3,4-b]pyridine-4-carboxylic acid (1-ethyl-piperidin-3-yl)-amide]",–

SMILES,inhibition at 1.14 µM,% Inhibition
"CCc1n[nH]c2nc(-c3ccc(O)cc3)cc(C(=O)NC3CN4CCC3CC4)c12 (stereo not drawn) [Example 159, 3-Ethyl-6-(4-hydroxy-phenyl)-1H-pyrazolo[3,4-b]pyridine-4-carboxylic acid (1-aza-bicyclo[2.2.2]oct-3-yl)-amide]",55%,–
"CCc1n[nH]c2nc(-c3ccc(O)cc3)cc(C(=O)N[C@@H]3CN4CCC3CC4)c12 [Example 162, (S)-3-Ethyl-6-(4-hydroxy-phenyl)-1H-pyrazolo[3,4-b]pyridine-4-carboxylic acid (1-aza-bicyclo[2.2.2]oct-3-yl)-amide]",51%,–
"CCc1n[nH]c2nc(-c3ccc(O)cc3)cc(C(=O)NC3CC4CCC(C3)N4C)c12 (stereo not drawn) [Example 163, 3-Ethyl-6-(4-hydroxy-phenyl)-1H-pyrazolo[3,4-b]pyridine-4-carboxylic acid (8-methyl-8-aza-bicyclo[3.2.1]oct-3-yl)-amide]",57%,–
